Results reported in the supplement of paper PMC10011410.
± gives the standard deviation of the averaged measurements.

Assays:
U-2 OS [1] = experiment: intracellular GSH:GSSG ratio (calculated); higher = more reduced glutathione pool; conditions: 24 h
Protocol: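 Intracellular glutathione in U-2 OS cells after 24 h compound treatment at 5, 10 and 20 uM (some at 40 and 80 uM). Total glutathione and GSSG were measured with the GSH/GSSG-Glo kit, and the GSH:GSSG ratio was calculated. Mean of five technical replicate plates.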

U-2 OS [2] = experiment: cell viability (CellTiter-Glo) relative to DMSO (% of control); higher = more viable; conditions: 24 h
Protocol: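 Cell viability of U-2 OS cells by CellTiter-Glo after 24 h compound treatment at 5, 10 and 20 uM (some at 40 and 80 uM), measured in parallel with the glutathione assay, as percent of DMSO control. Five technical replicate plates, averaged.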

U-2 OS [3] = experiment: total intracellular glutathione (GSH + GSSG) relative to DMSO (% of control); higher = more glutathione; conditions: 24 h
Protocol: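 Total intracellular glutathione (GSH + GSSG) in U-2 OS cells by GSH/GSSG-Glo after 24 h compound treatment at 5, 10 and 20 uM (some at 40 and 80 uM), as percent of DMSO control. Five technical replicate plates, averaged.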

U-2 OS [4] = experiment: cell painting activity score (Mahalanobis distance from DMSO wells); higher = stronger morphological phenotype; conditions: 24 h
In short: (§1)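 Using 384-well plates holding about 1,500 U-2 OS cells per well, treatment was applied by pin tool for 24 h at 37 °C, generally at six 2-fold concentrations ranging from 20 μM to 625 nM. Staining with MitoTracker, concanavalin A, phalloidin, wheat germ agglutinin, Hoechst and SYTO 14 preceded Opera Phenix imaging and CellProfiler feature extraction against DMSO cells on the same plate. Activity score and cell count are both referenced to DMSO wells, the former as a Mahalanobis distance. Four replicate plates were averaged for every value.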

U-2 OS [5] = experiment: relative cell count vs DMSO (cell painting) (fraction of DMSO control); higher = more cells remaining (less cytotoxic); conditions: 24 h
In short: as §1

U-2 OS [6] = experiment: AUC of culture confluence over time (live-cell imaging) (AUC (confluence % x time)); higher = more confluent culture (less growth inhibition)
In short: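 Confluence of U-2 OS cells in F-12K medium with 10% FBS was tracked by live-cell imaging. Cells were seeded at 750 per well in 384-well plates and treated 24 h later by pin tool, with most compounds at 20, 10 and 5 μM and 0.2% DMSO. Cells were kept at 37 °C and imaged every 4 h for up to 60 h on an Incucyte S3 with a 10x objective. The value is the area under the confluence-versus-time curve.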

SMILES	intracellular GSH:GSSG ratio (U-2 OS [1]; 5 µM)	intracellular GSH:GSSG ratio (U-2 OS [1]; 10 µM)	intracellular GSH:GSSG ratio (U-2 OS [1]; 20 µM)	intracellular GSH:GSSG ratio (U-2 OS [1]; 40 µM)	cell viability (U-2 OS [2]; 5 µM)	cell viability (U-2 OS [2]; 10 µM)	cell viability (U-2 OS [2]; 20 µM)	cell viability (U-2 OS [2]; 40 µM)	cell viability (U-2 OS [2]; 80 µM)	total intracellular glutathione (U-2 OS [3]; 5 µM)	total intracellular glutathione (U-2 OS [3]; 10 µM)	total intracellular glutathione (U-2 OS [3]; 20 µM)	total intracellular glutathione (U-2 OS [3]; 40 µM)	total intracellular glutathione (U-2 OS [3]; 80 µM)	cell painting activity score (U-2 OS [4]; 0.625 µM)	cell painting activity score (U-2 OS [4]; 1.25 µM)	cell painting activity score (U-2 OS [4]; 2.5 µM)	cell painting activity score (U-2 OS [4]; 5 µM)	cell painting activity score (U-2 OS [4]; 10 µM)	cell painting activity score (U-2 OS [4]; 20 µM)	relative cell count (U-2 OS [5]; 0.625 µM)	relative cell count (U-2 OS [5]; 1.25 µM)	relative cell count (U-2 OS [5]; 2.5 µM)	relative cell count (U-2 OS [5]; 5 µM)	relative cell count (U-2 OS [5]; 10 µM)	relative cell count (U-2 OS [5]; 20 µM)	AUC of culture confluence over time (U-2 OS [6]; 5 µM)	AUC of culture confluence over time (U-2 OS [6]; 10 µM)	AUC of culture confluence over time (U-2 OS [6]; 20 µM)	intracellular GSH:GSSG ratio (U-2 OS [1]; 80 µM)	cell painting activity score (U-2 OS [4]; 40 µM)	cell painting activity score (U-2 OS [4]; 80 µM)	relative cell count (U-2 OS [5]; 40 µM)	relative cell count (U-2 OS [5]; 80 µM)	AUC of culture confluence over time (U-2 OS [6]; 40 µM)	AUC of culture confluence over time (U-2 OS [6]; 80 µM)
Oc1cccc(O)c1O	22.7	8.34	5.48	1.66	82.2 ± 6.1	35.7 ± 10	0.451 ± 0.23	0.221 ± 0.03	0.263 ± 0.059	82.6 ± 6.4	48.8 ± 13	3.4 ± 0.69	2.67 ± 0.16	2.53 ± 0.23	3.4	4.83	3.93	3.87	5.49	5.54	0.96	0.998	0.978	1.02	0.974	0.973	46.4	48	38.4	–	–	–	–	–	–	–
Cn1nnnc1SC1=CS(=O)(=O)c2ccccc21	3.69	2.11	0.199	–	54.9 ± 6.7	65.2 ± 7.2	6.9 ± 1.4	–	–	59.4 ± 4.2	85.3 ± 12	23.3 ± 3.9	–	–	5.5	8.76	12	21.3	13.8	21.5	0.936	0.834	0.727	0.392	0.322	0.255	19.6	16	12.1	–	–	–	–	–	–	–
Cn1c(SC2=CS(=O)(=O)c3ccccc32)nnc1-c1ccc(O)cc1	10.2	4.41	2.8	–	96.8 ± 4.4	66 ± 4.1	71.2 ± 4.6	–	–	113 ± 51	82.1 ± 41	48.7 ± 27	–	–	6.03	8.31	10.7	13.1	16.2	13.2	0.933	0.993	0.903	0.761	0.527	0.379	22.8	21.2	22.3	–	–	–	–	–	–	–
CC(C)[C@H](C(=O)Nc1ccc(C(=O)NO)cc1)c1ccccc1	6.7	7.56	–	–	44.2 ± 4.6	44 ± 1.6	44 ± 1.6	–	–	40.8 ± 2.6	40.5 ± 3.5	39.6 ± 4.1	–	–	16.9	20.2	19.4	17.6	13.3	15.9	0.727	0.52	0.497	0.465	0.442	0.41	18.7	20	18.2	–	–	–	–	–	–	–
Nc1nc(-c2ccccc2)ns1	29.7	23.5	27.1	–	104 ± 5.4	104 ± 3	101 ± 6.3	–	–	107 ± 7.8	89.3 ± 4	117 ± 7.1	–	–	3.85	4.11	4.04	3.13	2.93	3.84	1	0.944	0.943	0.973	1	1.01	44.7	46.7	45.6	–	–	–	–	–	–	–
C=CC(=O)N1CCC[C@@H](n2nc(-c3ccc(Oc4ccccc4)cc3)c3c(N)ncnc32)C1	21.3	20	13.5	–	87.8 ± 1.4	87.6 ± 4	82 ± 3.9	–	–	89.1 ± 3.4	94.8 ± 4.3	85.1 ± 9.8	–	–	5.26	6.98	6.19	8.03	8.01	12.2	1.09	1.02	1.09	1.11	1.03	1.03	37.7	27.5	20.6	–	–	–	–	–	–	–
COc1ccc(N(C(=O)CCl)C(C(=O)NCCc2ccccc2)c2cccs2)cc1Cl (stereo unspecified)	4.03	5.85	–	–	64.5 ± 5.7	36.8 ± 12	8.23 ± 3.5	–	–	49.1 ± 4.8	23.5 ± 6.2	2.61 ± 0.21	–	–	9.81	11	11.4	14.4	32.8	32.2	0.916	0.7	0.657	0.209	0.198	0.29	15.9	17.6	16.4	–	–	–	–	–	–	–
CCN1CCN(c2ccc3nsnc3c2[N+](=O)[O-])CC1	16.2	18.8	13.3	–	105 ± 5.4	103 ± 4.1	106 ± 5.4	–	–	100 ± 6.2	98.1 ± 3.7	91.3 ± 3.3	–	–	3.95	4.39	4.69	6.21	4.95	5.29	0.938	0.946	0.945	0.908	0.929	0.955	45	46.2	42.9	–	–	–	–	–	–	–
O=C1CC(Nc2ccccc2)C(=O)N1Cc1ccccc1 (stereo unspecified)	–	33.5	34.3	–	116 ± 4.3	106 ± 4.3	100 ± 4.4	–	–	92.2 ± 3.2	94.5 ± 4.7	102 ± 6.3	–	–	3.91	3.72	3.99	4.03	4.46	3.59	1.01	1.03	1.03	0.984	0.96	1.05	48	38.3	43.1	–	–	–	–	–	–	–
CCCCCOc1ccc(/C=C\c2cccc(O)c2C(=O)O)cc1	21.5	17.6	21.8	14.2	106 ± 3.3	97.9 ± 5.9	106 ± 6.7	104 ± 5.3	99 ± 5.7	75.1 ± 6.4	69.9 ± 7	81.1 ± 8.2	78.4 ± 6.4	76.9 ± 9.8	5.46	4.75	3.23	3.6	4.31	4.17	0.986	0.944	0.908	0.973	1.05	0.952	38.6	40.9	46.8	35.3	6.92	17.3	0.501	0.24	34.2	44.5
COc1cc(/C=C/C(=O)CC(=O)/C=C/c2ccc(O)c(OC)c2)ccc1O	16.9	10.3	6.3	4.46	101 ± 7.1	90 ± 6.6	70.2 ± 3.2	40.9 ± 2.8	36.2 ± 3.8	112 ± 20	116 ± 3.4	100 ± 5.8	44.2 ± 2.1	41.5 ± 3.5	3.83	3.58	4.65	6.94	9.69	10.7	0.919	0.894	0.876	0.892	0.772	0.482	–	–	–	0.7	–	–	–	–	–	–
COc1ccc(C[C@H](N)C(=O)N[C@H]2[C@@H](O)[C@H](n3cnc4c(N(C)C)ncnc43)O[C@@H]2CO)cc1	3.09	1.12	–	–	10.2 ± 1.6	2.46 ± 0.44	1.28 ± 0.26	–	–	12.5 ± 1.3	4.88 ± 0.7	4.55 ± 0.68	–	–	13.8	17.7	20.2	25.3	32.9	33.9	1.04	0.891	0.637	0.283	0.157	0.0622	–	–	–	–	–	–	–	–	–	–
O=C1CC(Sc2nnnn2-c2ccccc2)C(=O)N1c1ccc([N+](=O)[O-])cc1 (stereo unspecified)	26	17	7.14	–	102 ± 5.5	104 ± 5.8	46.2 ± 11	–	–	117 ± 6.5	122 ± 5.5	61.8 ± 13	–	–	4.41	4.65	4.9	6.88	12.5	18.1	1.06	1.07	1.12	1.01	0.828	0.677	–	–	–	–	–	–	–	–	–	–
O=C(CSC1CC(=O)N(c2cccc(Cl)c2)C1=O)Nc1ccc(Br)cc1 (stereo unspecified)	28	31.9	26.5	–	105 ± 8.8	99.5 ± 4.2	107 ± 5.8	–	–	94.6 ± 4.8	93.9 ± 4	95.2 ± 5.6	–	–	3.18	3.28	3.09	4.23	3.79	3.43	1.13	1.13	1.06	1.06	1.1	1.12	–	–	–	–	–	–	–	–	–	–
C=C1C(=O)O[C@H](CCC)[C@H]1C(=O)O	21.5	22.5	22.9	25.2	91.7 ± 2.8	98.6 ± 6	95.5 ± 5.5	105 ± 3.7	105 ± 7.9	95.1 ± 3.1	90.6 ± 6.3	94.2 ± 5.9	97.6 ± 5.4	100 ± 4	3.78	4.58	3.59	4.83	3.69	5.28	1.06	1.04	1.06	0.973	1.07	1.01	–	–	–	20.4	–	–	–	–	–	–
S=C(Nc1ccccc1)Nc1nc(-c2ccccc2)[n+](-c2ccccc2)s1	27.8	18.7	29	–	91.8 ± 2.3	106 ± 3.2	97.5 ± 6.9	–	–	116 ± 14	96.7 ± 11	130 ± 9.9	–	–	3.57	4.45	5.25	3.52	6.94	3.81	0.907	0.951	0.994	0.926	0.955	0.94	–	–	–	–	–	–	–	–	–	–
